According to ChEMBL document CHEMBL1201862, “PubChem BioAssay data set” (2004):
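Where inhibition never reached the appropriate level, the endpoint shown equals the highest concentration tested. Otherwise, values were interpolated linearly from a five-concentration, 48-hour dose response in 96-well plates. At the GI50, growth is halved.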 Activity calls are given as the source filed them. Rule as the data show it: active = GI50 up to about 1.1 µM and inactive = higher.

Experiments:
Test in all cases: DTP human tumour cell line panel, 48 h
LXFL 529 = test system: LXFL 529
RXF 631 = test system: RXF 631
MDA-MB-435 = test system: MDA-MB-435
BT-549 = test system: BT-549
MDA-N = test system: MDA-N
MDA-MB-231 = test system: MDA-MB-231
T47D = test system: T47D
DU-145 = test system: DU-145

Measured: GI50

NC(=O)CCC(N=C(N)c1csc(C2OC(CO)C(O)C2O)n1)C(=O)O (configuration not stated)
inactive: LXFL 529 > 100 µM

CC(C)(C)C1(c2ccc(C3(c4ccccc4)Oc4ccccc4S3)[nH]2)Oc2ccccc2S1 (configuration not stated)
inactive: RXF 631 > 100 µM | LXFL 529 > 100 µM

O=C1C(Cl)N(c2ccc(Cl)cc2Cl)C1c1c[nH]c2ccccc12 (configuration not stated)
inactive: LXFL 529 > 100 µM

Cn1cnc(/C=C/C#N)c1
inactive: MDA-MB-435 > 100 µM | BT-549 > 100 µM | MDA-N > 100 µM | MDA-MB-231 > 100 µM

COC(=O)C1=C(O)C(C(=O)OC)[C@@]2(O)[C@@H](C(=O)OC)CC[C@@H]1[C@@H]2C(=O)OC (some centres not stated)
inactive: MDA-MB-435 18.2 µM | T47D 54.2 µM | BT-549 25.5 µM | MDA-MB-231 25.1 µM | DU-145 44.7 µM

COc1cc2c(cc1OC)C1Cc3sccc3CN1CC2 (configuration not stated)
inactive: RXF 631 > 100 µM | LXFL 529 > 100 µM

CCOC(=O)C(NC(C)=O)(Nc1ccc(F)cc1)C(F)(F)F (configuration not stated)
inactive: MDA-MB-435 3.95 µM | T47D 23.2 µM | BT-549 > 100 µM | MDA-N 4.75 µM | MDA-MB-231 > 100 µM | DU-145 > 100 µM

O=c1c(Cc2ccc(Cc3c(O)oc4ccccc4c3=O)cc2)c(O)oc2ccccc12
inactive: MDA-MB-435 > 100 µM | T47D > 100 µM | BT-549 > 100 µM | MDA-N > 100 µM | MDA-MB-231 > 100 µM | DU-145 > 100 µM
